# Patent US11819561B2, “Oral care compositions” (Colgate-Palmolive Company, priority 2020, dated 2023)
# Key:
# [1] = tested on: bacteria in saliva; test: Alamar blue test for antimicrobial activity; assay type: cell-based
# Experimental: Antimicrobial activity of the formulations is tested to determine whether the chlorhexidine is fully active. The Alamar blue test for antimicrobial activity is conducted according to standard methodology. Bacteria inoculum is prepared by diluting fresh saliva 2× with deionized water, followed by centrifugation at 8000 G/25° C. for 10 min, and decanting the upper clear liquid into a glass jar. The negative control (A) is distilled water. The positive control (B) is 2 wt. % chlorhexidine gluconate solution. The APG control (C) is a 10 wt. % decyl glucoside solution. The two test solutions are: (D) 2 wt. % chlorhexidine gluconate with 10 wt. % decyl glucoside; and (E) 2 wt. % chlorhexidine gluconate with 10 wt. % decyl glucoside solution, with 14% w/w STPP added. Each of the test solutions is combined with saliva in a weight ratio of 1:10 (solution to saliva). The pH of each mixture is adjusted to 5.5-7 by adding citric acid. The mixtures are vortexed for 1 minute, and incubated at 37° C. for 30 minutes. Subsequent addition of 200 μL of Alamar Blue dye immediately produced blue color in all samples and pictures were taken for comparison at different time intervals (0 hours, 24 hours, 48 hours) to show the evolution of color development. A blue color indicates bacterial kill in saliva and no bacterial growth, while a pink color indicates viable bacteria are still present. […]
# [2] = Visual observation of formulation clarity and precipitation; assay type: physicochemical; settings: Example 4, other cationic surfactants
# Experimental: For the following experiments, a 0.2 wt. % aqueous solution of chlorhexidine gluconate, and a 10.0 wt. % aqueous solution of decyl glucoside (“APG”) are prepared. The pH of the decyl glucoside solution is adjusted to 5.5-7.0 using citric acid. For each formulation, the appropriate amount of the decyl glucoside solution is added to appropriate amounts of the chlorhexidine stock solution. STPP is then added to each formulation, and the mixture is agitated by a bath sonicator until no large solids remained. Additional citric acid is added to adjust the pH to 5.5-7.0. The formulations are then agitated for an additional five minutes, then allowed to equilibrate for 30 minutes before observation and transmittance measurements. For the following experiments, a 0.2 wt. % aqueous solution of chlorhexidine gluconate, and a 2.0 wt. % aqueous solution of CAPB are prepared. STPP is added to the chlorhexidine solution to provide 1.6 wt. % STPP. For each formulation, the appropriate amount of the CAPB solution is added to appropriate amounts of the chlorhexidine/STPP stock solution. The mixture is agitated by a bath sonicator, and then additional citric acid is added to adjust the pH to 6.12-6.19. The formulations are then agitated for an additional five minutes, then allowed to equilibrate for 18 hours before observation. […]
molecule,measurement,setting,value
"CCCCCCCCCCO[C@@H]1O[C@H](CO)[C@@H](O)[C@H](O)[C@H]1O [Sample (C) (APG contr), decyl glucoside]",Alamar Blue color change,[1]; Example 1 (APG),color change from blue to pink after two days
benzalkonium chloride,Stabilization effect on CHX/STPP,[2],stabilization effect was not observed
cocamidopropyl betaine [Sample (C) (CAPB contr)],Alamar Blue color change,[1]; Example 2 (CAPB),color change from blue to pink after two days
